Data published in ChEMBL document CHEMBL4507283, “Data for DCP probe BI-1935” (2021).

Assays:
[1] = target: Voltage-dependent L-type calcium channel subunit alpha-1C (Rattus norvegicus, UniProt P22002); assay: CA+/TLATATG Eurofins-Panlabs selectivity data (BI); set-up: species or system Cavia porcellus; mode of action antagonist; conditions: guinea pig, atrial tissue, read-out: % Ctrl
[2] = target: 5-hydroxytryptamine receptor 7 (Homo sapiens) (UniProt P34969); conditions: Compound concentration 10.0 uM
[3] = target: Ephrin type-A receptor 4 (Homo sapiens) (UniProt P54764); conditions: Compound concentration 1000.0 nM
[4] = target: Receptor-interacting serine/threonine-protein kinase 1 (Homo sapiens) (UniProt Q13546); conditions: Compound concentration 1000.0 nM
[5] = test system: Receptor-type tyrosine-protein kinase FLT3 (Homo sapiens), P36888 [UNDEFINED MUTATION]; conditions: Compound concentration 1000.0 nM
[6] = target: Homeodomain-interacting protein kinase 4 (Homo sapiens) (UniProt Q8NE63); conditions: Compound concentration 1000.0 nM
[7] = target: D(4) dopamine receptor (Homo sapiens) (UniProt P21917); conditions: Compound concentration 10.0 uM
[8] = target: D(3) dopamine receptor (Homo sapiens) (UniProt P35462); assay: D3/HU Eurofins-Panlabs selectivity data (BI); conditions: Compound concentration 10.0 uM
[9] = target: Serine/threonine-protein kinase SIK2 (Homo sapiens) (UniProt Q9H0K1); conditions: Compound concentration 1000.0 nM
[10] = target: BMP-2-inducible protein kinase (Homo sapiens) (UniProt Q9NSY1); conditions: Compound concentration 1000.0 nM
[11] = target: Cytoplasmic tyrosine-protein kinase BMX (Homo sapiens) (UniProt P51813); conditions: Compound concentration 1000.0 nM
[12] = target: Serine/threonine-protein kinase ULK3 (Homo sapiens) (UniProt Q6PHR2); conditions: Compound concentration 1000.0 nM
[13] = target: MAP kinase-activated protein kinase 2 (Homo sapiens) (UniProt P49137); conditions: Compound concentration 1000.0 nM
[14] = target: Phosphatidylinositol 4-kinase beta (Homo sapiens) (UniProt Q9UBF8); conditions: Compound concentration 1000.0 nM
[15] = target: Peripheral plasma membrane protein CASK (Homo sapiens) (UniProt O14936); conditions: Compound concentration 1000.0 nM
[16] = target: Endothelin-1 receptor (Homo sapiens) (UniProt P25101); assay: ETA/HU Eurofins-Panlabs selectivity data (BI); conditions: Compound concentration 10.0 uM
[17] = test system: ALK tyrosine kinase receptor (Homo sapiens), Q9UM73 [C1156Y]; conditions: Compound concentration 1000.0 nM
Chain of ALK tyrosine kinase receptor (Homo sapiens), Q9UM73 [C1156Y] (Q9UM73 whole entry C1156Y, looked up, canonical isoform): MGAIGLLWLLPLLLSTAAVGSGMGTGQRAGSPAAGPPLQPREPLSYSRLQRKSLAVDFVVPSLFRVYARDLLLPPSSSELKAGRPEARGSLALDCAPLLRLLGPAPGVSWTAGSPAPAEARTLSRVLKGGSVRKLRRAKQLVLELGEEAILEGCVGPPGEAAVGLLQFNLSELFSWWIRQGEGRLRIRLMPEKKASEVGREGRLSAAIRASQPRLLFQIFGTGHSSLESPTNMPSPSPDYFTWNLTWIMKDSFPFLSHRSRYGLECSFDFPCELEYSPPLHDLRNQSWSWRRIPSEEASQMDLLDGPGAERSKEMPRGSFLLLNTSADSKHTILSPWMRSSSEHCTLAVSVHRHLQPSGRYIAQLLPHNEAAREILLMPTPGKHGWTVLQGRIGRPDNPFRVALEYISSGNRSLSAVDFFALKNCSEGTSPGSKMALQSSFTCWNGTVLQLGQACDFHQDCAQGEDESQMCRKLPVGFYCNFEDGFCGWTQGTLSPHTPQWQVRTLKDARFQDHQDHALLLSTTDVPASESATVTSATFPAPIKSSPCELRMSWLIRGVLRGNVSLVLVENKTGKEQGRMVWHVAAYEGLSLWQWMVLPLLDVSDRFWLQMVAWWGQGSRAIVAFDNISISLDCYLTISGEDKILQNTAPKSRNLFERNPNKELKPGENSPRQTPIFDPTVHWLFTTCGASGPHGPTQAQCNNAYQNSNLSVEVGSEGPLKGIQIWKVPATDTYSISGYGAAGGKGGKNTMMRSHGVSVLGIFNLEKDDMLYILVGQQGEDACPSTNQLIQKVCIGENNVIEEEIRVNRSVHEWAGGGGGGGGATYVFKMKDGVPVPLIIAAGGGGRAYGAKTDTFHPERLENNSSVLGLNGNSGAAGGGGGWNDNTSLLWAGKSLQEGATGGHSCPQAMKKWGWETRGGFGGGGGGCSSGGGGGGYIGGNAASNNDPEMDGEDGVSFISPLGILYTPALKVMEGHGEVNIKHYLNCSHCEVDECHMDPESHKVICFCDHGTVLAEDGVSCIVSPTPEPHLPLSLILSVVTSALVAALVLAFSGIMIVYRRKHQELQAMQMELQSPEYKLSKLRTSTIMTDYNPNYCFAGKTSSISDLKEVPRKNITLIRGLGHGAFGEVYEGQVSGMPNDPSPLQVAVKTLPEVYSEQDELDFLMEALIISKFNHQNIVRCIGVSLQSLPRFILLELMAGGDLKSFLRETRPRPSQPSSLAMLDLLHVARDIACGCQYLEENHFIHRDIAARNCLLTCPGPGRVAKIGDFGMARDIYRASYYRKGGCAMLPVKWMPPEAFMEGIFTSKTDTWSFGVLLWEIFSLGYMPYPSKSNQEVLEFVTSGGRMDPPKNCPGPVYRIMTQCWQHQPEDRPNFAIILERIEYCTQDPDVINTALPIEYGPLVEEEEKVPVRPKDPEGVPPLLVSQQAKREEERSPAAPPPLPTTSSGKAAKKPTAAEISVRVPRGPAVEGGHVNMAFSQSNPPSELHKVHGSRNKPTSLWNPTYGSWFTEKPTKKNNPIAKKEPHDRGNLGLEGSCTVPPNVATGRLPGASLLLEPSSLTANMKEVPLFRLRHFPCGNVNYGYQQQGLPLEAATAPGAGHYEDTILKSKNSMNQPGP

[18] = target: ATP-sensitive inward rectifier potassium channel 1 isoform X1 (Mesocricetus auratus) (UniProt A0A1U8CU73); assay: K+/KATP/HA Eurofins-Panlabs selectivity data (BI); conditions: Compound concentration 10.0 uM
[19] = target: 5-hydroxytryptamine receptor 2A (Homo sapiens) (UniProt P28223); conditions: Compound concentration 10.0 uM
[20] = target: Serine/threonine-protein kinase tousled-like 1 (Homo sapiens) (UniProt Q9UKI8); conditions: Compound concentration 1000.0 nM
Chain of Serine/threonine-protein kinase tousled-like 1 (Homo sapiens) (Q9UKI8 whole entry, canonical isoform): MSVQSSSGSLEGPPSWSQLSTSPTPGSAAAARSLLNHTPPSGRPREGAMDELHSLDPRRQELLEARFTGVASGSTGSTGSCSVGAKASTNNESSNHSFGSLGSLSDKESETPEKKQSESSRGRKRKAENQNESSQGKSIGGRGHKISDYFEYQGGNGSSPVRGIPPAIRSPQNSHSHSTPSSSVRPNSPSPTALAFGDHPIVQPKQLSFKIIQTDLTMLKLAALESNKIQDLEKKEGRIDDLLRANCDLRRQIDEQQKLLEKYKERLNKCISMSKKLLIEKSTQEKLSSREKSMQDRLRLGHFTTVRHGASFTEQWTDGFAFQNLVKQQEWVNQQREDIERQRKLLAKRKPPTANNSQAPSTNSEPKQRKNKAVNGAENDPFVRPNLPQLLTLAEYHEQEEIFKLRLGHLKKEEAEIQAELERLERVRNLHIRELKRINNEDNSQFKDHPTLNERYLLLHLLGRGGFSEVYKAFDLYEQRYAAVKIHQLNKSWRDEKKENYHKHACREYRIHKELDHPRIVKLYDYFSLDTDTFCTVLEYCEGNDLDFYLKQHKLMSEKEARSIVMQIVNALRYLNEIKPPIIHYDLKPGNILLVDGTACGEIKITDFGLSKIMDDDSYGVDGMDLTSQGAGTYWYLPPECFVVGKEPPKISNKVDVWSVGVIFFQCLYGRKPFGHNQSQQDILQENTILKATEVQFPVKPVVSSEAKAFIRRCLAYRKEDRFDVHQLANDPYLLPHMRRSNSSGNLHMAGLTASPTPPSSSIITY

[21] = target: Casein kinase I isoform delta (Homo sapiens) (UniProt P48730); conditions: Compound concentration 1000.0 nM
[22] = test system: Phosphatidylinositol 4,5-bisphosphate 3-kinase catalytic subunit alpha isoform (Homo sapiens), P42336 [H1047L]; conditions: Compound concentration 1000.0 nM
[23] = target: Casein kinase I isoform gamma-2 (Homo sapiens) (UniProt P78368); conditions: Compound concentration 1000.0 nM
[24] = target: Serine/threonine-protein kinase haspin (Homo sapiens) (UniProt Q8TF76); conditions: Compound concentration 1000.0 nM
[25] = target: 3-phosphoinositide-dependent protein kinase 1 (Homo sapiens) (UniProt O15530); conditions: Compound concentration 1000.0 nM
[26] = target: Calcium/calmodulin-dependent protein kinase type IV (Homo sapiens) (UniProt Q16566); conditions: Compound concentration 1000.0 nM
[27] = target: Serine/threonine-protein kinase TAO3 (Homo sapiens) (UniProt Q9H2K8); conditions: Compound concentration 1000.0 nM
[28] = target: Serine/threonine-protein kinase SIK3 (Homo sapiens) (UniProt Q9Y2K2); conditions: Compound concentration 1000.0 nM
[29] = target: Casein kinase I isoform epsilon (Homo sapiens) (UniProt P49674); conditions: Compound concentration 1000.0 nM
Chain of Casein kinase I isoform epsilon (Homo sapiens) (P49674 whole entry, looked up, canonical isoform): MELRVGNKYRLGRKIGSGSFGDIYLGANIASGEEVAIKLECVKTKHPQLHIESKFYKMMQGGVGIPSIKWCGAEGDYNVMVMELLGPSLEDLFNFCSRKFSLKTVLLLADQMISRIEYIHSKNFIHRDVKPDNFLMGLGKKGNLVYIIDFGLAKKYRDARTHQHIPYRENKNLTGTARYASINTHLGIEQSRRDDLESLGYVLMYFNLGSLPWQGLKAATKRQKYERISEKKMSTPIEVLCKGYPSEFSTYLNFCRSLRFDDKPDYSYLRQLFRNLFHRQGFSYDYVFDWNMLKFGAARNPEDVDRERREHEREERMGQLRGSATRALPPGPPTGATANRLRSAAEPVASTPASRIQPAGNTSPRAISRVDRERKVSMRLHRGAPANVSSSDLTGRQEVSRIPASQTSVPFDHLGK

[30] = test system: Phosphatidylinositol 4,5-bisphosphate 3-kinase catalytic subunit alpha isoform (Homo sapiens), P42336 [E545K]; conditions: Compound concentration 1000.0 nM
[31] = target: Urotensin-2 receptor (Homo sapiens) (UniProt Q9UKP6); assay: UROTENSIN_II Eurofins-Panlabs selectivity data (BI); conditions: Compound concentration 10.0 uM
[32] = target: 5-hydroxytryptamine receptor 6 (Homo sapiens) (UniProt P50406); conditions: Compound concentration 10.0 uM
[33] = target: Fibroblast growth factor receptor 3 (Homo sapiens) (UniProt P22607); conditions: Compound concentration 1000.0 nM
[34] = target: Mitogen-activated protein kinase 9 (Homo sapiens) (UniProt P45984); conditions: Compound concentration 1000.0 nM
[35] = target: Mitogen-activated protein kinase kinase kinase 7 (Homo sapiens) (UniProt O43318); conditions: Compound concentration 1000.0 nM
[36] = target: Macrophage-stimulating protein receptor (Homo sapiens) (UniProt Q04912); conditions: Compound concentration 1000.0 nM
[37] = target: Mitogen-activated protein kinase kinase kinase 6 (Homo sapiens) (UniProt O95382); conditions: Compound concentration 1000.0 nM
[38] = target: Mitogen-activated protein kinase 12 (Homo sapiens) (UniProt P53778); conditions: Compound concentration 1000.0 nM
[39] = target: Serine/threonine-protein kinase RIO1 (Homo sapiens) (UniProt Q9BRS2); conditions: Compound concentration 1000.0 nM
[40] = target: Tyrosine-protein kinase Fyn (Homo sapiens) (UniProt P06241); conditions: Compound concentration 1000.0 nM
[41] = target: Small conductance calcium-activated potassium channel protein 1 (Rattus norvegicus) (UniProt P70606); assay: K+/SKCA Eurofins-Panlabs selectivity data (BI); conditions: Compound concentration 10.0 uM
[42] = test system: Receptor-type tyrosine-protein kinase FLT3 (Homo sapiens), P36888 [N841I]; conditions: Compound concentration 1000.0 nM
[43] = target: Dual specificity protein kinase TTK (Homo sapiens) (UniProt P33981); conditions: Compound concentration 1000.0 nM
[44] = target: Tyrosine-protein kinase receptor TYRO3 (Homo sapiens) (UniProt Q06418); conditions: Compound concentration 1000.0 nM

Chain of Voltage-dependent L-type calcium channel subunit alpha-1C (P22002 whole entry): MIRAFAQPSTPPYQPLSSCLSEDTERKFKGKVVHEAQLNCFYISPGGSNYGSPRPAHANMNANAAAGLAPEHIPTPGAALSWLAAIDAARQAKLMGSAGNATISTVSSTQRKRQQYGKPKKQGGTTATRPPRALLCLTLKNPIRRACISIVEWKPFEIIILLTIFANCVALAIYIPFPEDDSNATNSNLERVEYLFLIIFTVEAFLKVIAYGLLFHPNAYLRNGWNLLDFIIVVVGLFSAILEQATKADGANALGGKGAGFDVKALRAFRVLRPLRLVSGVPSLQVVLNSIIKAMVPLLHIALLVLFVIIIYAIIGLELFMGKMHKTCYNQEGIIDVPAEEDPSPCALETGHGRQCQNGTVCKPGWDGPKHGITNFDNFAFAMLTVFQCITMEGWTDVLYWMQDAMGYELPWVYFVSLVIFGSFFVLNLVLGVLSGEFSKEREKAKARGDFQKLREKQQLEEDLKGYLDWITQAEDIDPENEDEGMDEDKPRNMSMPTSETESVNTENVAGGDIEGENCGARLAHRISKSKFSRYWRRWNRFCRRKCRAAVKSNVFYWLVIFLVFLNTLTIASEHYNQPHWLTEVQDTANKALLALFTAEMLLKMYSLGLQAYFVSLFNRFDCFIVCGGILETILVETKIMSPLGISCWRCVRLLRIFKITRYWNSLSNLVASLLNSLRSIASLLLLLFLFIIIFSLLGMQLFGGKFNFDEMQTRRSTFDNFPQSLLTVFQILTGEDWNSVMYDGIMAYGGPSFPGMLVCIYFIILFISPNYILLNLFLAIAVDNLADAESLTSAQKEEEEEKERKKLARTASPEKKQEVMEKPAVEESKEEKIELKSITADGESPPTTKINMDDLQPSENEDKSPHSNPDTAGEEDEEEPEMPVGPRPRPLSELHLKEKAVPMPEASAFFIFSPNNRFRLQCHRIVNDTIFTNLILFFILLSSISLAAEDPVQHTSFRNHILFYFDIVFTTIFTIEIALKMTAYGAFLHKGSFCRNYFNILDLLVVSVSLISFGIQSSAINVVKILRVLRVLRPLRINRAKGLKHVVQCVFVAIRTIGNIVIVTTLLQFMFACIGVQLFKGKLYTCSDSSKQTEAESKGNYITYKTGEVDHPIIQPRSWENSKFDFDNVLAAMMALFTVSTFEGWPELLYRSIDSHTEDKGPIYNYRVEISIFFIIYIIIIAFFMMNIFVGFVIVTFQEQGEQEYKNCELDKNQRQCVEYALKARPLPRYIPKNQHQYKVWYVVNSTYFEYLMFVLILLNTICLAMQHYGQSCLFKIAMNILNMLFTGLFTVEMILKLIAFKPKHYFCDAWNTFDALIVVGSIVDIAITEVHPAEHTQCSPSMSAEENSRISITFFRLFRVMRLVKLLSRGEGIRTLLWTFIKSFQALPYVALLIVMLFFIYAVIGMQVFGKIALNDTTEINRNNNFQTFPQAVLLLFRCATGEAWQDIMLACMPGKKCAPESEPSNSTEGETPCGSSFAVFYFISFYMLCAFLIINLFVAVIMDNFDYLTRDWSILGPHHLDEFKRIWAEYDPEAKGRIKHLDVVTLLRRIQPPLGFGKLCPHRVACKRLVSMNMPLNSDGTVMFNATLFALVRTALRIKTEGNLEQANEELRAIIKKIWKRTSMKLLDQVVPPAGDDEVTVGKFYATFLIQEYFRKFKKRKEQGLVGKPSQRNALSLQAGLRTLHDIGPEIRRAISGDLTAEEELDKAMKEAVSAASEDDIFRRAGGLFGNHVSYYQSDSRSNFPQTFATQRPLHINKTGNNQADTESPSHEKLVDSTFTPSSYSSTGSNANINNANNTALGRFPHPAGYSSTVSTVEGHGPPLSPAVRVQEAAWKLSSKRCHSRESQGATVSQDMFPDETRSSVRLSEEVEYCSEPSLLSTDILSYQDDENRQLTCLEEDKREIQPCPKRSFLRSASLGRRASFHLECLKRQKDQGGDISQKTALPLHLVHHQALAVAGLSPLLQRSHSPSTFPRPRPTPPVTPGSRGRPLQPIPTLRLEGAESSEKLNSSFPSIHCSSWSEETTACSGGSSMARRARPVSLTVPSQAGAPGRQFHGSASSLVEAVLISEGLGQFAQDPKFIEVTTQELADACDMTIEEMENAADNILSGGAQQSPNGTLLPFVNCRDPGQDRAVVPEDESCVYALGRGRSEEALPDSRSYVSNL

In the case of CCOCCn1cc(C(=O)Nc2ccc(-n3nc(-c4cccnc4)cc3C(F)(F)F)cn2)ccc1=O [BI 1935], the activity at 1 µM ([1]; compound concentration 1 uM) is reported as 86% (not active), the activity at 3 µM ([1]; compound concentration 3 uM) is reported as 68% (not active) and the activity at 10 µM ([1]; compound concentration 10 uM) is reported as 25%. For the same compound, the inhibition [2] was -4.21%, the residual activity [3] was 91% and the residual activity [4] was 88%. The residual activity [5] was 79%, the residual activity [6] was 100% and the inhibition [7] was -3.89%. For the same compound, the residual activity [8] was 110%, the residual activity [9] was 91% and the residual activity [10] was 95%. It also gave a residual activity [11] of 84%, a residual activity [12] of 61% and a residual activity [13] of 100%. The residual activity [14] was 100%, the residual activity [15] was 85% and the residual activity [16] was 97%. It also gave a residual activity [17] of 100%, a residual activity [18] of 92% and an inhibition [19] of -4.26%. It also gave a residual activity [20] of 100%, a residual activity [21] of 100% and a residual activity [22] of 93%. The residual activity [23] was 100%, the residual activity [24] was 100% and the residual activity [25] was 87%. It also gave a residual activity [26] of 100%, a residual activity [27] of 66% and a residual activity [28] of 92%. The residual activity [29] was 100%, the residual activity [30] was 96% and the residual activity [31] was 97%. It also gave an inhibition [32] of 0.656%, a residual activity [33] of 84% and a residual activity [34] of 97%. It also gave a residual activity [35] of 90%, a residual activity [36] of 100% and a residual activity [37] of 86%. It also gave a residual activity [38] of 65%, a residual activity [39] of 100% and a residual activity [40] of 53%. It also gave a residual activity [41] of 106%, a residual activity [42] of 92% and a residual activity [43] of 100%. It also gave a residual activity [44] of 0%.
